Experimental data from patent US9624175B2, “Fused-bicyclic aryl quinolinone derivatives as mutant-isocitrate dehydrogenase inhibitors” (Forma Therapeutics, Inc., priority 2015, dated 2017).

Legend:
[1] = target: IDH1-R132H recombinant protein (Homo sapiens (Human), UniProt O75874, R132H); experiment: IDH1-R132H enzymatic assay (NADPH consumption, diaphorase/resazurin readout); type: biochemical; conditions: inhibition of NADPH consumption, 30 nM IDH1-R132H; read-out: Enzyme IDH1 R132H IC50
Description: (§1) Assays were performed in a 384-well black plate. An aliquot of 250 nL of compound was incubated with 10 μL of 30 nM IDH1-R132H or 10 nM IDH1-R132C recombinant protein in assay buffer (50 mM Tris pH=7.5, 150 mM NaCl, 5 mM MgCl2, 0.1% (w/v) Bovine Serum Albumin, and 0.01% Triton X-100) in each well at 25° C. for 15 minutes. After the plate was centrifuged briefly, an aliquot of 10 μL of 2 mM α-ketoglutarate and 20 μM NADPH solution prepared in assay buffer was then added to each well and the reaction was maintained at 25° C. for 45 minutes. An aliquot of 10 μL of diaphorase solution (0.15 U/mL diaphorase and 30 μM Resazurin in assay buffer) was added to each well. The plate was maintained at 25° C. for 15 minutes and then read on a plate reader with excitation and emission wavelengths at 535 nm and 590 nm, respectively. The IC50 of a given compound was calculated by fitting the dose response curve of inhibition of NADPH consumption at a given concentration with the four parameter logistic equation.

[2] = target: IDH1-R132C recombinant protein (Homo sapiens (Human), UniProt O75874, R132C); experiment: IDH1-R132C enzymatic assay (NADPH consumption, diaphorase/resazurin readout); type: biochemical; conditions: inhibition of NADPH consumption, 10 nM IDH1-R132C; read-out: Enzyme IDH1 R132C IC50
Description: as §1

Sequence of IDH1-R132C recombinant protein (O75874 whole entry R132C): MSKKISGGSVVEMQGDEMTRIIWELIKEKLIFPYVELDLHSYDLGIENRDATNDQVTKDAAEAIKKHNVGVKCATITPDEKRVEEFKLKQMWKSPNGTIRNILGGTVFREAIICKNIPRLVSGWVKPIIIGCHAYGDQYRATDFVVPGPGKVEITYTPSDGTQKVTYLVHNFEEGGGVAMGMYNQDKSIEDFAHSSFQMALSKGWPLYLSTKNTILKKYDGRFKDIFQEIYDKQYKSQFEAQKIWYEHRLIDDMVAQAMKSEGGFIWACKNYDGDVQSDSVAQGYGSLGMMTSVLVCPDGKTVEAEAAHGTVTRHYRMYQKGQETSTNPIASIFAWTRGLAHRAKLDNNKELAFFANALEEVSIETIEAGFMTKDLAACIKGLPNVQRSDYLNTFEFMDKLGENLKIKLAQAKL
Sequence of IDH1-R132H recombinant protein (O75874 whole entry R132H): as the sequence (O75874 whole entry R132C) above, with C132H counted along it

| Compound | IC50 [1] [µM] | IC50 [2] [µM] |
| --- | --- | --- |
| C[C@H](Nc1ncc2[nH]c(=O)n(C)c2n1)c1cc2cc(Cl)ccc2[nH]c1=O [Compound I-58, 6-chloro-3-[(1S)-1-[(9-methyl-8-oxo-8,9-dihydro-7H-purin-2-yl)amino]ethyl]-1,2-dihydroquinolin-2-one] | 0.1 to 1 | 1 to 10 |
| C[C@H](Nc1ncc2c(n1)NC(=O)OC2)c1cc2cc(Cl)ccc2[nH]c1=O [Compound I-49, 6-chloro-3-[(1S)-1-({2-oxo-1H,2H,4H-pyrimido[4,5-d][1,3]oxazin-7-yl}amino)ethyl]-1,2-dihydroquinolin-2-one] | < 0.1 | 0.1 to 1 |
| COc1cc2[nH]c(=O)c(C(C)Nc3ncc4c(n3)N(C)C(=O)OC4)cc2cc1Cl (racemic) [Compound I-50, 6-chloro-7-methoxy-3-[1-({1-methyl-2-oxo-1H,2H,4H-pyrimido[4,5-d][1,3]oxazin-7-yl}amino)ethyl]-1,2-dihydroquinolin-2-one] | < 0.1 | < 0.1 |
| C[C@H](Nc1ncc2c(n1)N(C)C(=O)C2)c1cc2cc(Cl)ccc2[nH]c1=O [Compound I-61, 6-chloro-3-[(1S)-1-({7-methyl-6-oxo-5H,6H,7H-pyrrolo[2,3-d]pyrimidin-2-yl}amino)ethyl]-1,2-dihydroquinolin-2-one] | 0.1 to 1 | 0.1 to 1 |
| C[C@H](Nc1ncc2c(n1)N(C)C(=O)OC2)c1cc2cc(Cl)ccc2[nH]c1=O [Compound I-47, 6-chloro-3-[(1S)-1-({1-methyl-2-oxo-1H,2H,4H-pyrimido[4,5-d][1,3]oxazin-7-yl}amino)ethyl]-1,2-dihydroquinolin-2-one] | < 0.1 | < 0.1 |
| COc1cc2[nH]c(=O)c([C@H](C)Nc3ncc4c(n3)N(C)C(=O)OC4)cc2cc1Cl [Compound I-51, 6-chloro-7-methoxy-3-[(1S)-1-({1-methyl-2-oxo-1H,2H,4H-pyrimido[4,5-d][1,3]oxazin-7-yl}amino)ethyl]-1,2-dihydroquinolin-2-one] | < 0.1 | < 0.1 |
| O=c1[nH]c2ccc(Cl)cc2cc1CNc1cccc2ocnc12 [Compound I-1, 3-{[(1,3-benzoxazol-4-yl)amino]methyl}-6-chloro-1,2-dihydroquinolin-2-one] | 0.1 to 1 | 0.1 to 1 |
| C[C@H](Nc1ncc2oc(=O)[nH]c2n1)c1cc2cc(Cl)ccc2[nH]c1=O [Compound I-56, 6-chloro-3-[(1S)-1-({2-oxo-2H,3H-[1,3]oxazolo[4,5-d]pyrimidin-5-yl}amino)ethyl]-1,2-dihydroquinolin-2-one] | < 0.1 | 0.1 to 1 |
| C[C@H](Nc1ncc2c(n1)NC(=O)CC2)c1cc2cc(Cl)ccc2[nH]c1=O [Compound I-62, 6-chloro-3-[(1S)-1-({7-oxo-5H,6H,7H,8H-pyrido[2,3-d]pyrimidin-2-yl}amino)ethyl]-1,2-dihydroquinolin-2-one] | 1 to 10 | 1 to 10 |
| O=c1ccc2cc(NCc3cc4cc(Cl)ccc4[nH]c3=O)ccc2o1 [Compound I-4, 6-chloro-3-{[(2-oxo-2H-chromen-6-yl)amino]methyl}-1,2-dihydroquinolin-2-one] | 0.1 to 1 | > 10 |
| C[C@@H](Nc1ncc2c(n1)N(C)C(=O)OC2)c1cc2cc(Cl)c(F)cc2[nH]c1=O [Compound I-53, 6-chloro-7-fluoro-3-[(1R)-1-({1-methyl-2-oxo-1H,2H,4H-pyrimido[4,5-d][1,3]oxazin-7-yl}amino)ethyl]-1,2-dihydroquinolin-2-one] | 1 to 10 | > 10 |
| COc1cc2[nH]c(=O)c([C@@H](C)Nc3ncc4c(n3)N(C)C(=O)OC4)cc2cc1Cl [Compound I-52, 6-chloro-7-methoxy-3-[(1R)-1-({1-methyl-2-oxo-1H,2H,4H-pyrimido[4,5-d][1,3]oxazin-7-yl}amino)ethyl]-1,2-dihydroquinolin-2-one] | 0.1 to 1 | 1 to 10 |
| CC(C)CN1C(=O)OCc2cnc(N[C@@H](C)c3cc4cc(Cl)ccc4[nH]c3=O)nc21 [Compound I-46, 6-chloro-3-[(1S)-1-{[1-(2-methylpropyl)-2-oxo-1H,2H,4H-pyrimido[4,5-d][1,3]oxazin-7-yl]amino}ethyl]-1,2-dihydroquinolin-2-one] | < 0.1 | < 0.1 |
| C[C@H](Nc1ncc2c(n1)NC(=O)C2)c1cc2cc(Cl)ccc2[nH]c1=O [Compound I-60, 6-chloro-3-[(1S)-1-({6-oxo-5H,6H,7H-pyrrolo[2,3-d]pyrimidin-2-yl}amino)ethyl]-1,2-dihydroquinolin-2-one] | 0.1 to 1 | 1 to 10 |
| C[C@H](Nc1ncc2oc(=O)n(C)c2n1)c1cc2cc(Cl)ccc2[nH]c1=O [Compound I-57, 6-chloro-3-[(1S)-1-({3-methyl-2-oxo-2H,3H-[1,3]oxazolo[4,5-d]pyrimidin-5-yl}amino)ethyl]-1,2-dihydroquinolin-2-one] | < 0.1 | 0.1 to 1 |
| C[C@H](Nc1ncc2[nH]c(=O)[nH]c2n1)c1cc2cc(Cl)ccc2[nH]c1=O [Compound I-59, 6-chloro-3-[(1S)-1-[(8-oxo-8,9-dihydro-7H-purin-2-yl)amino]ethyl]-1,2-dihydroquinolin-2-one] | 1 to 10 | 1 to 10 |
| C[C@H](Nc1ncc2c(n1)N(C)C(=O)OC2)c1cc2cc(Cl)c(OCc3ccccn3)cc2[nH]c1=O [Compound I-48, 6-chloro-3-[(1S)-1-({1-methyl-2-oxo-1H,2H,4H-pyrimido[4,5-d][1,3]oxazin-7-yl}amino)ethyl]-7-(pyridin-2-ylmethoxy)-1,2-dihydroquinolin-2-one] | < 0.1 | < 0.1 |
| CC(=O)N1CCOc2c1ccnc2N[C@@H](C)c1cc2cc(Cl)ccc2[nH]c1=O [Compound I-44, 3-[(1S)-1-({1-acetyl-1H,2H,3H-pyrido[3,4-b][1,4]oxazin-5-yl}amino)ethyl]-6-chloro-1,2-dihydroquinolin-2-one] | 1 to 10 | > 10 |
| CC(C)Cn1c(=O)oc2cnc(N[C@@H](C)c3cc4cc(Cl)ccc4[nH]c3=O)nc21 [Compound I-55, 6-chloro-3-[(1S)-1-{[3-(2-methylpropyl)-2-oxo-2H,3H-[1,3]oxazolo[4,5-d]pyrimidin-5-yl]amino}ethyl]-1,2-dihydroquinolin-2-one] | < 0.1 | < 0.1 |
| CC(=O)N1CCc2c1ccnc2N[C@@H](C)c1cc2cc(Cl)ccc2[nH]c1=O [Compound I-42, 3-[(1S)-1-({1-acetyl-1H,2H,3H-pyrrolo[3,2-c]pyridin-4-yl}amino)ethyl]-6-chloro-1,2-dihydroquinolin-2-one] | 0.1 to 1 | 1 to 10 |
| C[C@H](Nc1ncc2cn[nH]c2n1)c1cc2cc(Cl)ccc2[nH]c1=O [Compound I-45, 6-chloro-3-[(1S)-1-({1H-pyrazolo[3,4-d]pyrimidin-6-yl}amino)ethyl]-1,2-dihydroquinolin-2-one] | 0.1 to 1 | 1 to 10 |
| C[C@H](Nc1nccc2c1CCN2S(C)(=O)=O)c1cc2cc(Cl)ccc2[nH]c1=O [Compound I-43, 6-chloro-3-[(1S)-1-({1-methanesulfonyl-1H,2H,3H-pyrrolo[3,2-c]pyridin-4-yl}amino)ethyl]-1,2-dihydroquinolin-2-one] | 1 to 10 | – |
